Source: ChEMBL document CHEMBL5120828, “Identification and optimisation of a pyrimidopyridone series of IRAK4 inhibitors” (Bioorg Med Chem, 2022)
In brackets after ≈: the same amount, converted by molar mass.

Experiments:
[1] = molecular target: T1, Interleukin-1 receptor-associated kinase 4 (Homo sapiens, UniProt Q9NWZ3); test: Inhibition of human recombinant IRAK4 assessed as unphosphorylated KKARFSRFAGSSPSQSSMVAR peptide substrate measured after 2 hrs by LC-MS/MS analysis
T1 sequence (Q9NWZ3 whole entry): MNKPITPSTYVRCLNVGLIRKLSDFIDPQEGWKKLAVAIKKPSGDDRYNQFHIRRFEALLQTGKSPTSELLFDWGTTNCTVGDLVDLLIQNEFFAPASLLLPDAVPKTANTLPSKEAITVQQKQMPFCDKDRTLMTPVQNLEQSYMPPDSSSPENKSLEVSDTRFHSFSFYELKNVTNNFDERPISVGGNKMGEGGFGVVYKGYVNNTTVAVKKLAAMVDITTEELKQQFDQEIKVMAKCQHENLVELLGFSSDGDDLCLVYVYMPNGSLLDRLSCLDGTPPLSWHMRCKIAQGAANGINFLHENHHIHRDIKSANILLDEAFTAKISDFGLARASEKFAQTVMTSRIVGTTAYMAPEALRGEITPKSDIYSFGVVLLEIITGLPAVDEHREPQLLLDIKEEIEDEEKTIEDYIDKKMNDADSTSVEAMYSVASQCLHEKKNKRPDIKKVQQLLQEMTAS

[2] = Metabolic stability in human liver microsomes assessed as intrinsic clearance; format: ADME
[3] = Octanol/water partition coefficient, logP of compound at pH 7.4 by shake-flask method; format: physicochemical
[4] = molecular target: T1, Interleukin-1 receptor-associated kinase 4; test: Inhibition of IRAK4 in IL1-stimulated human KARPAS-299 cells assessed as fluorescence intensity; format: cell-based
[5] = Efflux ratio of permeability in human Caco-2 cells; format: ADME, cell-based
[6] = Intrinsic permeability across apical to basolateral side in human Caco-2 cells; format: ADME, cell-based
[7] = molecular target: Voltage-gated inwardly rectifying potassium channel KCNH2 (Homo sapiens, UniProt Q12809); test: Inhibition of human ERG channel; format: toxicity
[8] = Fraction unbound in human plasma; format: ADME, cell-free
[9] = Aqueous solubility of compound; format: physicochemical; conditions: buffer

Voltage-gated inwardly rectifying potassium channel KCNH2, sequence (Q12809 whole entry): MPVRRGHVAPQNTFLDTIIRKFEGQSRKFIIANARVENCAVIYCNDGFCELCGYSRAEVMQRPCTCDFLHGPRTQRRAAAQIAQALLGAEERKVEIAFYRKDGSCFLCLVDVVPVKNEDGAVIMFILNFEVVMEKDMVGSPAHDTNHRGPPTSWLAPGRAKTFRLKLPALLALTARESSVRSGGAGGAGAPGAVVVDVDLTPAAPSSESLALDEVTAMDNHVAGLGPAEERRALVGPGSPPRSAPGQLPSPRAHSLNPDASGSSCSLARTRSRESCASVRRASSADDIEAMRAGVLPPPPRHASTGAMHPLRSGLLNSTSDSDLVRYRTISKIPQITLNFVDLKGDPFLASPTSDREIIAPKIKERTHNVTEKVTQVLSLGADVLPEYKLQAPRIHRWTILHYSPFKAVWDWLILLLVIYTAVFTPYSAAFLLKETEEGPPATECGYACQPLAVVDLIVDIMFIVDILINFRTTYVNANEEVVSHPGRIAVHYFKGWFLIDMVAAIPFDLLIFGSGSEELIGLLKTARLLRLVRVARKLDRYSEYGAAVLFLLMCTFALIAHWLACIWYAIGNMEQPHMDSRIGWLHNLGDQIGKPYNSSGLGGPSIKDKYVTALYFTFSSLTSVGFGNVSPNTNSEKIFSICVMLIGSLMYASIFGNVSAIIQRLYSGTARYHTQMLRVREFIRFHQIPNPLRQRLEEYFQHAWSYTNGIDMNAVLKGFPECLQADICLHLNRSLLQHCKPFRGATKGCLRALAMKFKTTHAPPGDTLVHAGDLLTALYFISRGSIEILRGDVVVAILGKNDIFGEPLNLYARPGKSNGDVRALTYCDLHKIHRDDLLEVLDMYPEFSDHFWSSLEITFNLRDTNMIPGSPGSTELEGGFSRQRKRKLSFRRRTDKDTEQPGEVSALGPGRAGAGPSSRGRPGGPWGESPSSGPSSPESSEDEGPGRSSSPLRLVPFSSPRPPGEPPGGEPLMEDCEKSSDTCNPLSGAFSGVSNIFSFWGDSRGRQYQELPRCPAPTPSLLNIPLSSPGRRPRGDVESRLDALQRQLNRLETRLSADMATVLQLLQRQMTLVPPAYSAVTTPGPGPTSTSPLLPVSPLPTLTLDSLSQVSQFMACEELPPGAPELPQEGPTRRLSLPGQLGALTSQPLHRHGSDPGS

IC50 [1] | CLint [2] | logD [3] | IC50 [4] | efflux ratio [5] | Papp A→B [6] | fraction unbound [8] | solubility [9] | SMILES | IC50 [7]
4 nM | 25 µL/min/mg | 2.5 | 74 nM |  |  |  |  | CN1CCC(n2cc(Nc3nc(NC4(C)CC4)c4c(=O)n(C5CC5)ccc4n3)cn2)CC1 | 
5 nM | 22 µL/min/mg | 2.4 | 150 nM | 3 | 17 ×10⁻⁶ cm/s |  |  | COC(=O)N1CCN([C@H]2CC[C@H](Nc3nc(Nc4cnn(C)c4)nc4ccn(C)c(=O)c34)CC2)CC1 | 
 | 82 µL/min/mg | 2.7 |  |  |  |  |  | Cn1cc(Nc2nc(NC3(C)CC3)c3nc(CC#N)ccc3n2)cn1 | 
5 nM | 47 µL/min/mg | 2.8 | 170 nM |  |  |  |  | C[C@H](CF)n1ccc2nc(Nc3cnn(C4CCN(C)CC4)c3)nc(NC3(C)CC3)c2c1=O | 
1 nM | 40 µL/min/mg | 1.7 | 16 nM | 37 | 4.3 ×10⁻⁶ cm/s |  |  | CN(C)CC(=O)N1CCC(n2cc(Nc3nc(NC4(C)CC4)c4c(=O)n(C)ccc4n3)cn2)CC1 | 
15 nM | < 3 µL/min/mg | 1.7 | 500 nM |  |  |  |  | CN1CC2(CC(n3cc(Nc4nc(NC5(C)CC5)c5c(=O)n(-c6cn(C)nn6)ccc5n4)cn3)C2)C1 | 
11 nM | 4.7 µL/min/mg | 1.8 | 320 nM | 4.5 | 16 ×10⁻⁶ cm/s |  |  | CN1CCC(n2cc(Nc3nc(NC4(C)CC4)c4c(=O)n(-c5nnc[nH]5)ccc4n3)cn2)CC1 | 
16 nM | 14 µL/min/mg | 1.2 | 320 nM |  |  |  |  | CN1C[C@H]2C[C@@H]1C[C@@H]2n1cc(Nc2nc(NC3(C)CC3)c3c(=O)n(C)ccc3n2)cn1 | 
1 nM | 20 µL/min/mg | 2.5 | 69 nM | 28 | 3.3 ×10⁻⁶ cm/s |  |  | CN1CCC(n2cc(Nc3nc(NC4(C)CC4)c4c(=O)n(-c5cnn[nH]5)ccc4n3)cn2)CC1 | 
0.8 nM | 57 µL/min/mg | 2.4 | 46 nM | 8.8 | 15 ×10⁻⁶ cm/s |  |  | CN(C)C(=O)CN1CCC(n2cc(Nc3nc(NC4(C)CC4)c4c(=O)n(C)ccc4n3)cn2)CC1 | 
2 nM | 83 µL/min/mg | 2.5 | 49 nM | 6 | 48 ×10⁻⁶ cm/s |  |  | CC(=O)N1CCC(n2cc(Nc3nc(NC4(C)CC4)c4c(=O)n(C)ccc4n3)cn2)CC1 | 
8 nM | 13 µL/min/mg | 2.9 | 190 nM | 0.75 | 67 ×10⁻⁶ cm/s |  |  | Cn1cc(Nc2nc(NC3(C)CC3)c3c(=O)n(C)ccc3n2)cn1 | 
4 nM | 38 µL/min/mg | 2.3 | 72 nM | 5 |  |  |  | CN1CCC(n2cc(Nc3nc(NC4(C)CC4)c4c(=O)n(-c5cncnc5)ccc4n3)cn2)CC1 | 
3 nM | 31 µL/min/mg | 3.3 | 170 nM |  |  |  |  | CN1CCC(n2cc(Nc3nc(NC4(C)CC4)c4c(=O)n(C(F)F)ccc4n3)cn2)CC1 | 
4 nM | 51 µL/min/mg | 3 | 150 nM |  |  |  |  | C[C@@H](CF)n1ccc2nc(Nc3cnn(C4CCN(C)CC4)c3)nc(NC3(C)CC3)c2c1=O | 
6 nM | 49 µL/min/mg | 2.5 | 180 nM | 2 | 21 ×10⁻⁶ cm/s |  |  | CN1CCC(n2cc(Nc3nc(NC4(C)CC4)c4c(=O)n(-c5cn(C)nn5)ccc4n3)cn2)CC1 | 
23 nM | 25 µL/min/mg | 2.3 | 440 nM |  |  |  |  | COC(=O)N1CCN([C@H]2CC[C@H](Nc3nc(Nc4cnn(C)c4)nc4ccn(CC#N)c(=O)c34)CC2)CC1 | 

IC50 [1] | CLint [2] | logD [3] | IC50 [4] | efflux ratio [5] | Papp A→B [6] | fraction unbound [8] | solubility [9] | SMILES | IC50 [7]
3 nM | 12 µL/min/mg | 2 | 79 nM |  |  |  |  | C[C@H](F)Cn1ccc2nc(Nc3cnn([C@H]4C[C@H]5C[C@@H]4CN5C)c3)nc(NC3(C)CC3)c2c1=O | 
5 nM | 37 µL/min/mg | 2.6 | 180 nM | 2.1 | 7.9 ×10⁻⁶ cm/s |  |  | COC(=O)N1CCN([C@H]2CC[C@H](Nc3nc(Nc4cnn(C)c4)nc4ccc(C)nc34)CC2)CC1 | 
21 nM | 41 µL/min/mg | 2.9 | 110 nM |  |  |  |  | C[C@@H](F)Cn1ccc2nc(Nc3cnn(C4CCN(C)CC4)c3)nc(NC3(C)CC3)c2c1=O | 
1 nM | 25 µL/min/mg | 2.4 | 39 nM | 3.1 | 17 ×10⁻⁶ cm/s |  |  | CN1CCC(n2cc(Nc3nc(NC4(C)CC4)c4c(=O)n(C)ccc4n3)cn2)CC1 | 
1 nM | 98 µL/min/mg | 3.2 | 45 nM |  |  |  |  | CN1CC[C@H](n2cc(Nc3nc(NC4(C)CC4)c4c(=O)n(C)ccc4n3)cn2)[C@@H](F)C1 (racemic) | 
0.6 nM | 61 µL/min/mg | 2.7 | 10 nM |  |  |  |  | CN1CC[C@H](n2cc(Nc3nc(NC4(C)CC4)c4c(=O)n(C)ccc4n3)cn2)[C@H](F)C1 (racemic) | 
2 nM | 89 µL/min/mg | 2.4 | 75 nM |  |  |  |  | CN1CC(n2cc(Nc3nc(NC4(C)CC4)c4c(=O)n(C)ccc4n3)cn2)CCC1=O (centres undefined) | 
3 nM | 17 µL/min/mg | 1.4 | 90 nM |  |  |  |  | CN1C[C@@H]2C[C@H]1C[C@@H]2n1cc(Nc2nc(NC3(C)CC3)c3c(=O)n(C)ccc3n2)cn1 | 
5 nM | 32 µL/min/mg | 3.3 | 210 nM |  |  |  |  | CC(C)n1ccc2nc(Nc3cnn(C4CCN(C)CC4)c3)nc(NC3(C)CC3)c2c1=O | 
4 nM | 23 µL/min/mg | 1.9 | 150 nM |  |  |  |  | CN1C[C@H]2C[C@@H]1C[C@@H]2n1cc(Nc2nc(NC3(C)CC3)c3c(=O)n(CC(F)F)ccc3n2)cn1 | 
4 nM | 9.6 µL/min/mg | 2 | 90 nM | 7.1 | 12 ×10⁻⁶ cm/s |  |  | CN1CC2(CC(n3cc(Nc4nc(NC5(C)CC5)c5c(=O)n(CC(F)F)ccc5n4)cn3)C2)C1 | 
0.6 nM | 31 µL/min/mg | 2.7 | 18 nM |  |  |  |  | C[C@H]1C[C@@H](n2cc(Nc3nc(NC4(C)CC4)c4c(=O)n(C)ccc4n3)cn2)CCN1C (relative stereo) | 
< 1 nM | 88 µL/min/mg | 2.2 | 50 nM |  |  |  |  | C[C@@H]1C[C@@H](n2cc(Nc3nc(NC4(C)CC4)c4c(=O)n(C)ccc4n3)cn2)CCN1C (racemic) | 
2 nM | 50 µL/min/mg | 2.9 | 83 nM |  |  |  |  | CN1CCC(n2cc(Nc3nc(NC4(C)CC4)c4c(=O)n(CC(F)F)ccc4n3)cn2)CC1 | 
2 nM | 47 µL/min/mg | 2.9 | 56 nM |  |  |  |  | C[C@H](F)Cn1ccc2nc(Nc3cnn(C4CCN(C)CC4)c3)nc(NC3(C)CC3)c2c1=O | 
2 nM | 10 µL/min/mg | 2.1 | 120 nM | 6.1 | 17 ×10⁻⁶ cm/s | 0.17 | 890 µM (≈ 415 µg/mL) | C[C@H](F)Cn1ccc2nc(Nc3cnn(C4CC5(C4)CN(C)C5)c3)nc(NC3(C)CC3)c2c1=O | 4200 nM
1 nM | 9.7 µL/min/mg | 1.4 | 33 nM | 15 | 5.7 ×10⁻⁶ cm/s |  |  | CN1CC2(CC(n3cc(Nc4nc(NC5(C)CC5)c5c(=O)n(C)ccc5n4)cn3)C2)C1 | 
